In one assay the target is RON (Homo sapiens, UniProt Q04912). Nature of the assay: Evaluation of inhibitory activity against RON (TR-FRET kinase assay). Conditions: RON protein, ULight-labeled Poly GT substrate. It is filed as biochemical. The method, then: In order to measure the inhibitory activity of each of the compounds of Examples against RON, the IC50 of each of the compounds was measured using Time-resolved fluorescence energy transfer (TR-FRET).
Specifically, the compound was prepared to a concentration of 1 mM in 100% DMSO and was diluted 10 times in a stepwise manner through 3-fold dilution. The compound (2 ul) diluted in a stepwise manner was added to a 96-well-plate containing 48 ul of a 1× kinase reaction buffer (50 mM HEPES (pH 7.4), 0.01% Tween-20, 5 mM DTT, 0.5 mM Na3VO4, 2 mM EGTA, 10 mM MgCl2).
The RON protein was diluted to a concentration of 49.3 nM in a RON storage buffer (50 mM Tris-HCl (pH 7.5), 150 mM NaCl, 0.5 mM EDTA, 0.02% Triton X-100), and then diluted again to a concentration of 0.4 nM in a 1×kinase reaction buffer. As a substrate cocktail, a RON-specific substrate mixed solution (40 uM ULight-labeled Poly GT, 100 nM ATP) was prepared at a concentration 2 times the final reaction concentration.
(§1) Thereafter, a 384-well-plate was prepared, and 2.5 μl of each of the diluted compounds of Examples was added to a corresponding well of experimental group wells, and 2.5 μl of a 4% DMSO solution was dispensed into high control wells and low control wells.
(§2) Thereafter, 2.5 μL of 0.4 nM RON was dispensed into each of the high control wells and the experimental group wells, and 2.5 μL of the 1× kinase reaction buffer was added to the low control wells, and all the wells were centrifuged at room temperature for 40 seconds at 1,000 RPM, and then incubated at room temperature for 20-30 minutes. Then, 5 uL of the substrate cocktail (2×) was dispensed into each well, and all the wells were centrifuged at room temperature for 40 seconds at 1,000 RPM, and then incubated at room temperature for 60 minutes. Thereafter, 5 uL of 30 mM EDTA was added to each well to terminate the reaction, and all the wells were then incubated again at room temperature for 5 minutes. Thereafter, 5 uL of a 4× phosphotyrosine antibody (Perkin Elmer) containing europium was added to each well, and all the wells were then incubated at room temperature for 60 minutes. After the incubation, the 384-well-plate was read with the Vison plate reader. In this case, the excitation wavelength was 340 nm, and the emission wavelength was 620 nm and 665 nm. The IC50 value of each compound of Examples was derived using the GraphPd Prism7 program.
On the technique in general: In TR-FRET formats the signal depends on donor and acceptor labels being close together.

The next assay concerns the target cMET (Homo sapiens, UniProt P08581). Nature of the assay: Evaluation of inhibitory activity against MET (TR-FRET kinase assay). It is filed as biochemical. Conditions: cMET protein, TK peptide substrate. The procedure:
In addition, in order to measure the enzyme activity inhibition for cMET, the evaluation was performed in the same manner as the enzyme activity inhibition measurement experiment for RON.
Specifically, the compound was prepared to a concentration of 1 mM in 100% DMSO and was diluted 10 times in a stepwise manner through 3-fold dilution. The compound (2 ul) diluted in a stepwise manner was added to a 96-well-plate containing 48 ul of a 1× kinase reaction buffer (50 mM HEPES (pH 7.4), 0.05% BSA, 0.005% Tween-20, 1 mM DTT, 0.5 mM MnCl2, 20 mM MgCl2).
The cMET protein was diluted to a concentration of 263 nM in a cMET storage buffer (50 mM Tris-HCl (pH 7.5), 150 mM NaCl, 0.05% Brij35, 1 mM DTT, 10% Glycerol), and then diluted again to a concentration of 2 nM in a 1× kinase reaction buffer. As a substrate cocktail, a MET-specific substrate mixed solution (5 uM TK peptide, 10 mM ATP) was prepared at a concentration 2 times the final reaction concentration.
as §1
as §2, with “of 2” for “of 0.4”, “nM cMET” for “nM RON”, “the 1×kinase” for “the 1× kinase”, “of 90” for “of 30”

Where only a bound is given, the exact number is not on record here.

Sequence of RON (Q04912 25-1400, species assumed): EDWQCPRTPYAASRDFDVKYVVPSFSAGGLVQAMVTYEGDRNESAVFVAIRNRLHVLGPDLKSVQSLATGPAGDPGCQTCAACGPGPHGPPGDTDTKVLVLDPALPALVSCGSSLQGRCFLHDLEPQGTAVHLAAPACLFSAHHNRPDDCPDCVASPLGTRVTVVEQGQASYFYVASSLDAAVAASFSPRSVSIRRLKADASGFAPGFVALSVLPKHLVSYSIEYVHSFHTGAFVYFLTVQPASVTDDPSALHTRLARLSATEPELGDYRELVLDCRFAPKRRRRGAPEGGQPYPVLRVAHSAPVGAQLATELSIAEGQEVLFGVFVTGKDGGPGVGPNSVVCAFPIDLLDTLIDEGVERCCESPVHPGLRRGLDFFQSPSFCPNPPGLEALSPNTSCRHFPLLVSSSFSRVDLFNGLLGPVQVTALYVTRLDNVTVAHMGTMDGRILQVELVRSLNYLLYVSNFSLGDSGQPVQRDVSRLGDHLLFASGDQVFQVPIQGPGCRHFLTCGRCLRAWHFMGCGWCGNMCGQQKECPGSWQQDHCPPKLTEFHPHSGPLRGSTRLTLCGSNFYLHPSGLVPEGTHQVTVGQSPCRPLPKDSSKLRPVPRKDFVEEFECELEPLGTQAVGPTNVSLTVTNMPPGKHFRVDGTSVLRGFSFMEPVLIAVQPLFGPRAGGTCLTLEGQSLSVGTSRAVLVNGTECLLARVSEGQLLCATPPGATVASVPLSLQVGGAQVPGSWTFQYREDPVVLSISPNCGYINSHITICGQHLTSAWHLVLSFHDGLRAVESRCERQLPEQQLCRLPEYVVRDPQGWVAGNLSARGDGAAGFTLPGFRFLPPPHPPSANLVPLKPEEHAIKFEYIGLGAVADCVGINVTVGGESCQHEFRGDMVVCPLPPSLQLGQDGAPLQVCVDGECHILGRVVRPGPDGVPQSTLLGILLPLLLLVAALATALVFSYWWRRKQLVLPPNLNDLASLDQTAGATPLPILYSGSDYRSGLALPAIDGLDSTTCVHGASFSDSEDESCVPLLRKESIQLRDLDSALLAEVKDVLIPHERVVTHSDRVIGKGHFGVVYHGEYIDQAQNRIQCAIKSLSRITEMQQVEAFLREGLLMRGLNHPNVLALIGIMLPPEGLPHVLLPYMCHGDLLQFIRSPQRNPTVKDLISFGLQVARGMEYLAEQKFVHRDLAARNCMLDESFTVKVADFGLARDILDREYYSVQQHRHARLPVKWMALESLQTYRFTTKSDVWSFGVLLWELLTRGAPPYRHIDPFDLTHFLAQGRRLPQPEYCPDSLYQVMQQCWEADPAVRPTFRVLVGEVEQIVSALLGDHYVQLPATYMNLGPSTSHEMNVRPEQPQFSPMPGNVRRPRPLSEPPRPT
Sequence of cMET (P08581 25-1390): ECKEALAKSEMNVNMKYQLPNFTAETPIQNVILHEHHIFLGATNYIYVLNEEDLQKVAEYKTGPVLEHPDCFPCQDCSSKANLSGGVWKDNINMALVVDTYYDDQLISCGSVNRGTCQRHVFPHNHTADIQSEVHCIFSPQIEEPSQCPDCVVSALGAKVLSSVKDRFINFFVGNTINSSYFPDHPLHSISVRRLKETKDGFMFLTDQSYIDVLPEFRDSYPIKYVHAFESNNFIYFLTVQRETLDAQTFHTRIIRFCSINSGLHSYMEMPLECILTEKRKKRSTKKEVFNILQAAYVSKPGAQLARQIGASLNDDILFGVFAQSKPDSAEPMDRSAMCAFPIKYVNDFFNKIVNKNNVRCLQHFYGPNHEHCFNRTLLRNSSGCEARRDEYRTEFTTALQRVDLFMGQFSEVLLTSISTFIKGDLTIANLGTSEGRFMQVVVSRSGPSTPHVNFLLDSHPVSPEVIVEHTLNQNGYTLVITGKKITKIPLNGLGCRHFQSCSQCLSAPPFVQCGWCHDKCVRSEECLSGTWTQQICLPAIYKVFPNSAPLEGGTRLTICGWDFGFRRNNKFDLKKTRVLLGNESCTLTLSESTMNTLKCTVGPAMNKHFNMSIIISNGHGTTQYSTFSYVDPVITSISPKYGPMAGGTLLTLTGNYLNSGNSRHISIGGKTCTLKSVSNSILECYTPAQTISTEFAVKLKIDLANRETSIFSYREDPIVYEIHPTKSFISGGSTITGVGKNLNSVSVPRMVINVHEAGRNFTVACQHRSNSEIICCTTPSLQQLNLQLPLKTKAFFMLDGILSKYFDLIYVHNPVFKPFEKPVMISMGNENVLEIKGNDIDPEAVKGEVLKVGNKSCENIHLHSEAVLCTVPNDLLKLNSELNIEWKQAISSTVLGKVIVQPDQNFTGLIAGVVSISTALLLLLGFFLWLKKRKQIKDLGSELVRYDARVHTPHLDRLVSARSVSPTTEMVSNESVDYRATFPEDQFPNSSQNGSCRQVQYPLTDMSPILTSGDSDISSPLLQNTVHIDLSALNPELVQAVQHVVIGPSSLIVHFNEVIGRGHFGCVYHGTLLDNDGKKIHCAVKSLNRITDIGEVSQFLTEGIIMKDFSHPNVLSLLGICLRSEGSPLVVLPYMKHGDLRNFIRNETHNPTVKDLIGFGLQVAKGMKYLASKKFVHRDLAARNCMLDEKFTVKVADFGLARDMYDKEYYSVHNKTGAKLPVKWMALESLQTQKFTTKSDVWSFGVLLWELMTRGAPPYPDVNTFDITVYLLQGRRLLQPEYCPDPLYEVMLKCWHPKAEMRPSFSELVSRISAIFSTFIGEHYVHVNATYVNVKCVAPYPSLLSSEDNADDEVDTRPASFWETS

For orientation: IC50 means the concentration needed to halve the response being measured. Read a high IC50 as a need for much substance. As for `Nc1nccc(Oc2ccc(NC(=O)c3ccn(-c4ccccc4)n3)cc2F)c1Cl` [Example 39, N-(4-((2-amino-3-chloropyridin-4-yl)oxy)-3-fluorophenyl)-1-phenyl-1H-pyrazole-3-carboxamide], the IC50 on RON and against cMET was 0.5 to 5 µM each time.
For `C=CC(=O)N(C(=O)C=C)c1nccc(Oc2ccc(NC(=O)c3ncn(-c4ccccc4)c3C(F)(F)F)cc2F)c1Cl` [Example 22], the IC50 is 0.05 to 0.5 µM against RON and over 5 µM against cMET.
As to `COc1ccccc1-n1ncc(C(=O)Nc2ccc(Oc3ccnc(N)c3Cl)c(F)c2)c1C(F)(F)F` [Example 16, N-(4-((2-amino-3-chloropyridin-4-yl)oxy)-3-fluorophenyl)-1-(2-methoxyphenyl)-5-(trifluoromethyl)-1H-pyrazole-4-carboxamide], the values for the IC50 against RON and on cMET were 0.05 to 0.5 µM and over 5 µM, respectively.
For `Nc1nccc(Oc2ccc(NC(=O)c3cnn(-c4ccccc4)c3F)cc2F)c1Cl` [Example 20, N-(4-((2-amino-3-chloropyridin-4-yl)oxy)-3-fluorophenyl)-5-fluoro-1-phenyl-1H-pyrazole-4-carboxamide] the same measures were 0.05 to 0.5 µM and over 5 µM.
Regarding `Nc1nccc(Oc2ccc(NC(=O)c3ccc(-c4ccccc4)s3)cc2F)c1Cl` [Example 33, N-(4-((2-amino-3-chloropyridin-4-yl)oxy)-3-fluorophenyl)-5-phenylthiophene-2-carboxamide], the IC50 at RON was 0.05 to 0.5 µM; against cMET, over 5 µM.
As to `Nc1nccc(Oc2ccc(NC(=O)c3cnn(-c4ccccc4)c3)cc2F)c1Cl` [Example 7, N-(4-((2-amino-3-chloropyridin-4-yl)oxy)-3-fluorophenyl)-1-phenyl-1H-pyrazole-4-carboxamide], the IC50 is 0.5 to 5 µM against RON and over 5 µM against cMET.
Regarding `CCc1c(C(=O)Nc2ccc(Oc3ncnc(N)c3Cl)c(F)c2)cnn1-c1ccccc1` [Example 47], the IC50 against RON is 0.05 to 0.5 µM; at cMET it was over 5 µM.
Consider `CCOC(=O)N(c1c(Oc2ccc(NC(=O)c3cnn(-c4ccccc4)c3CC)cc2F)ccnc1N)C(C)C` [Example 35, Ethyl(2-amino-4-(4-(5-ethyl-1-phenyl-1H-pyrazole-4-carboxamido)-2-fluorophenoxy)pyridin-3-yl)(isopropyl)carbamate], for which the values for the IC50 at RON and against cMET were 0.5 to 5 µM and over 5 µM, respectively.
For `Cn1ncc(C(=O)Nc2ccc(Oc3ccnc(N)c3Cl)c(F)c2)c1C(F)F` [Example 9, N-(4-((2-amino-3-chloropyridin-4-yl)oxy)-3-fluorophenyl)-5-(difluoromethyl)-1-methyl-1H-pyrazole-4-carboxamide] the same measures were 0.5 to 5 µM and over 5 µM.
With `Nc1nccc(Oc2ccc(NC(=O)c3cn(-c4ccccc4)nn3)cc2F)c1Cl` [Example 40, N-(4-((2-amino-3-chloropyridin-4-yl)oxy)-3-fluorophenyl)-1-phenyl-1H-1,2,3-triazole-4-carboxamide], the IC50 against RON and on cMET was over 5 µM each time.
For the compound `Nc1ncnc(Oc2ccc(NC(=O)c3cnn(C4CCCOC4)c3C(F)(F)F)cc2F)c1Cl` (centres unmarked) [Example 50], the IC50 was 0.5 to 5 µM at RON and over 5 µM against cMET.
In the case of `Nc1nccc(Oc2ccc(NC(=O)c3onc(-c4ccccc4)c3C(F)(F)F)cc2F)c1Cl` [Example 38, N-(4-((2-amino-3-chloropyridin-4-yl)oxy)-3-fluorophenyl)-3-phenyl-4-(trifluoromethyl)isoxazole-5-carboxamide], the IC50 at RON was 0.05 to 0.5 µM; against cMET it was over 5 µM.
As for `Nc1nccc(Oc2ccc(NC(=O)c3ncn(-c4ccccc4)c3C(F)(F)F)cc2F)c1Cl` [Example 1, N-(4-((2-amino-3-chloropyridin-4-yl)oxy)-3-fluorophenyl)-1-phenyl-5-(trifluoromethyl)-1H-imidazole-4-carboxamide], the values for the IC50 at RON and against cMET were under 0.05 µM and 0.5 to 5 µM, respectively.
Turning to `CC(C)(C)n1ncc(C(=O)Nc2ccc(Oc3ccnc(N)c3Cl)c(F)c2)c1C(F)(F)F` [Example 17, N-(4-((2-amino-3-chloropyridin-4-yl)oxy)-3-fluorophenyl)-1-(tert-butyl)-5-(trifluoromethyl)-1H-pyrazole-4-carboxamide], the IC50 fell in the range of 0.05 to 0.5 µM against RON and 0.5 to 5 µM on cMET.
`C=CC(=O)Nc1nccc(Oc2ccc(NC(=O)c3ncn(-c4ccccc4)c3C(F)(F)F)cc2F)c1Cl` [Example 21]: the figures for the IC50 against RON and on cMET were 0.05 to 0.5 µM and over 5 µM, respectively.
`Nc1nccc(Oc2ccc(NC(=O)c3cnn(-c4ccccc4Cl)c3C(F)(F)F)cc2F)c1Cl` [Example 36, N-(4-((2-amino-3-chloropyridin-4-yl)oxy)-3-fluorophenyl)-1-(2-chlorophenyl)-5-(trifluoromethyl)-1H-pyrazole-4-carboxamide]: the results for the IC50 on RON and against cMET were 0.05 to 0.5 µM and 0.5 to 5 µM, respectively.
`CCOC(=O)Nc1c(Oc2ccc(NC(=O)c3cnn(-c4ccccc4)c3C(F)(F)F)cc2F)ccnc1N` [Example 34, Ethyl(2-amino-4-(2-fluoro-4-(1-phenyl-5-(trifluoromethyl)-1H-pyrazole-4-carboxamido)phenoxy)pyridin-3-yl)carbamate]: the IC50 at RON is 0.05 to 0.5 µM; against cMET it was over 5 µM.
Consider `CN1CCCC(n2ncc(C(=O)Nc3ccc(Oc4ncnc(N)c4Cl)c(F)c3)c2C(F)(F)F)C1` (centres unmarked) [Example 60, N-[4-(6-amino-5-chloro-pyrimidin-4-yl)oxy-3-fluorophenyl]-1-(1-methyl-3-piperidyl)-5-(trifluoromethyl)pyrazole-4-carboxamide], for which the 50% inhibitory concentration (IC50) is 0.5 to 5 µM on RON and over 5 µM on cMET.
Regarding `CCc1c(C(=O)Nc2ccc(Oc3ccnc(N)c3Cl)c(F)c2)cnn1-c1ccccc1` [Example 5, N-(4-((2-amino-3-chloropyridin-4-yl)oxy)-3-fluorophenyl)-5-ethyl-1-phenyl-1H-pyrazole-4-carboxamide], the IC50 against RON was in the range of 0.05 to 0.5 µM; on cMET, 0.5 to 5 µM.
Consider `Nc1nccc(Oc2ccc(NC(=O)c3cnn(C4CCCOC4)c3C(F)(F)F)cc2F)c1Cl` (centres unmarked) [Example 8, N-(4-((2-amino-3-chloropyridin-4-yl)oxy)-3-fluorophenyl)-1-(tetrahydro-2H-pyran-3-yl)-5-(trifluoromethyl)-1H-pyrazole-4-carboxamide], for which the IC50 against RON was 0.05 to 0.5 µM; against cMET, 0.5 to 5 µM.
In the case of `Nc1nccc(Oc2ccc(NC(=O)c3cnc(-c4ccccc4)s3)cc2F)c1Cl` [Example 30, N-(4-((2-amino-3-chloropyridin-4-yl)oxy)-3-fluorophenyl)-2-phenylthiazole-5-carboxamide], the IC50 is 0.05 to 0.5 µM against RON and over 5 µM against cMET.
`Nc1nccc(Oc2ccc(NC(=O)c3cnn(-c4c(F)cccc4F)c3C(F)(F)F)cc2F)c1Cl` [Example 37, N-(4-((2-amino-3-chloropyridin-4-yl)oxy)-3-fluorophenyl)-1-(2,6-difluorophenyl)-5-(trifluoromethyl)-1H-pyrazole-4-carboxamide]: the IC50 against RON was under 0.05 µM; at cMET, 0.5 to 5 µM.

These data come from patent publication US20240316017A1, “NOVEL PYRIDINE DERIVATIVE COMPOUND AS RON INHIBITOR” (LG CHEM, LTD., priority 2021, published 2024).
